Experimental data reported in ChEMBL document CHEMBL5634117 (Eur J Med Chem, 2023).

How the values were obtained:
[1] = tested on: MCF7; assay: Growth inhibition of human MCF7 cells assessed as reduction in cell viability measured after 48 hrs by SRB assay; assay type: functional
[2] = tested on: A498; assay: Growth inhibition of human A498 cells assessed as reduction in cell viability measured after 48 hrs by SRB assay; assay type: functional
[3] = tested on: UACC-62; assay: Growth inhibition of human UACC-62 cells assessed as reduction in cell viability measured after 48 hrs by SRB assay; assay type: functional
[4] = tested on: U-251; assay: Growth inhibition of human U-251 cells assessed as reduction in cell viability measured after 48 hrs by SRB assay; assay type: functional
[5] = tested on: SNB-19; assay: Growth inhibition of human SNB-19 cells assessed as reduction in cell viability measured after 48 hrs by SRB assay; assay type: functional
[6] = tested on: NCI/ADR-RES; assay: Growth inhibition of human NCI/ADR-RES cells assessed as reduction in cell viability measured after 48 hrs by SRB assay; assay type: functional
[7] = tested on: KM12; assay: Growth inhibition of human KM12 cells assessed as reduction in cell viability measured after 48 hrs by SRB assay; assay type: functional
[8] = tested on: MOLT-4; assay: Growth inhibition of human MOLT-4 cells assessed as reduction in cell viability measured after 48 hrs by SRB assay; assay type: functional
[9] = tested on: NCI-H460; assay: Growth inhibition of human NCI-H460 cells assessed as reduction in cell viability measured after 48 hrs by SRB assay; assay type: functional
[10] = tested on: PC-3; assay: Growth inhibition of human PC-3 cells assessed as reduction in cell viability measured after 48 hrs by SRB assay; assay type: functional
[11] = tested on: HOP-62; assay: Growth inhibition of human HOP-62 cells assessed as reduction in cell viability measured after 48 hrs by SRB assay; assay type: functional
[12] = tested on: BT-549; assay: Growth inhibition of human BT-549 cells assessed as reduction in cell viability measured after 48 hrs by SRB assay; assay type: functional
[13] = tested on: HCT-116; assay: Growth inhibition of human HCT-116 cells assessed as reduction in cell viability measured after 48 hrs by SRB assay; assay type: functional
[14] = tested on: SK-MEL-28; assay: Growth inhibition of human SK-MEL-28 cells assessed as reduction in cell viability measured after 48 hrs by SRB assay; assay type: functional
[15] = tested on: MDA-MB-468; assay: Growth inhibition of human MDA-MB-468 cells assessed as reduction in cell viability measured after 48 hrs by SRB assay; assay type: functional
[16] = tested on: SNB-75; assay: Growth inhibition of human SNB-75 cells assessed as reduction in cell viability measured after 48 hrs by SRB assay; assay type: functional
[17] = tested on: NCI-H522; assay: Growth inhibition of human NCI-H522 cells assessed as reduction in cell viability measured after 48 hrs by SRB assay; assay type: functional
[18] = tested on: SR; assay: Growth inhibition of human SR cells assessed as reduction in cell viability measured after 48 hrs by SRB assay; assay type: functional
[19] = tested on: HT-29; assay: Growth inhibition of human HT-29 cells assessed as reduction in cell viability measured after 48 hrs by SRB assay; assay type: functional
[20] = tested on: M14; assay: Growth inhibition of human M14 cells assessed as reduction in cell viability measured after 48 hrs by SRB assay; assay type: functional
[21] = tested on: ACHN; assay: Growth inhibition of human ACHN cells assessed as reduction in cell viability measured after 48 hrs by SRB assay; assay type: functional
[22] = tested on: T47D; assay: Growth inhibition of human T47D cells assessed as reduction in cell viability measured after 48 hrs by SRB assay; assay type: functional
[23] = tested on: SW-620; assay: Growth inhibition of human SW620 cells assessed as reduction in cell viability measured after 48 hrs by SRB assay; assay type: functional
[24] = tested on: OVCAR-3; assay: Growth inhibition of human OVCAR-3 cells assessed as reduction in cell viability measured after 48 hrs by SRB assay; assay type: functional
[25] = tested on: Malme-3M; assay: Growth inhibition of human Malme-3M cells assessed as reduction in cell viability measured after 48 hrs by SRB assay; assay type: functional
[26] = tested on: CAKI-1; assay: Growth inhibition of human CAKI-1 cells assessed as reduction in cell viability measured after 48 hrs by SRB assay; assay type: functional
[27] = biological target: Mitogen-activated protein kinase 10 (Homo sapiens, UniProt P53779); assay: Inhibition of human JNK3 at 10 uM in presence of ATP relative to control
Sequence of Mitogen-activated protein kinase 10 (P53779 whole entry): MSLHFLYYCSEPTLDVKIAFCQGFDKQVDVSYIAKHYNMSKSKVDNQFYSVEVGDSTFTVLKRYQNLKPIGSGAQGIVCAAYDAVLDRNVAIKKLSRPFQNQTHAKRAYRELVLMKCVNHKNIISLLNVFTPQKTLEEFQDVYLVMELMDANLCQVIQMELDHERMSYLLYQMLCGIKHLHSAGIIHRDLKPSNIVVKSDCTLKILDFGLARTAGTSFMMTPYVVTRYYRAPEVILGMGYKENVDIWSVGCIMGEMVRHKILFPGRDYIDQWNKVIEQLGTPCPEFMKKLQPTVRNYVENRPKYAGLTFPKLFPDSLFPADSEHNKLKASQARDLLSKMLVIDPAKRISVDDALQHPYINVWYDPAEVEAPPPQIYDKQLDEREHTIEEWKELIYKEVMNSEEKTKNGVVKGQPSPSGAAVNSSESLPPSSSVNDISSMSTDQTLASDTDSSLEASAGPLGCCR

[28] = tested on: CCRF-CEM; assay: Growth inhibition of human CCRF-CEM cells assessed as reduction in cell viability measured after 48 hrs by SRB assay; assay type: functional
[29] = tested on: UO-31; assay: Growth inhibition of human UO-31 cells assessed as reduction in cell viability measured after 48 hrs by SRB assay; assay type: functional
[30] = tested on: HCT-15; assay: Growth inhibition of human HCT-15 cells assessed as reduction in cell viability measured after 48 hrs by SRB assay; assay type: functional
[31] = tested on: SK-MEL-2; assay: Growth inhibition of human SK-MEL-2 cells assessed as reduction in cell viability measured after 48 hrs by SRB assay; assay type: functional
[32] = tested on: TK-10; assay: Growth inhibition of human TK-10 cells assessed as reduction in cell viability measured after 48 hrs by SRB assay; assay type: functional
[33] = tested on: NCI-H226; assay: Growth inhibition of human NCI-H226 cells assessed as reduction in cell viability measured after 48 hrs by SRB assay; assay type: functional
[34] = tested on: 786-0; assay: Growth inhibition of human 786-0 cells assessed as reduction in cell viability measured after 48 hrs by SRB assay; assay type: functional
[35] = tested on: SF-539; assay: Growth inhibition of human SF-539 cells assessed as reduction in cell viability measured after 48 hrs by SRB assay; assay type: functional
[36] = tested on: NCI-H322M; assay: Growth inhibition of human NCI-H322M cells assessed as reduction in cell viability measured after 48 hrs by SRB assay; assay type: functional
[37] = tested on: LOX IMVI; assay: Growth inhibition of human LOX IMVI cells assessed as reduction in cell viability measured after 48 hrs by SRB assay; assay type: functional
[38] = tested on: DU-145; assay: Growth inhibition of human DU-145 cells assessed as reduction in cell viability measured after 48 hrs by SRB assay; assay type: functional
[39] = tested on: COLO 205; assay: Growth inhibition of human COLO 205 cells assessed as reduction in cell viability measured after 48 hrs by SRB assay; assay type: functional
[40] = tested on: IGROV-1; assay: Growth inhibition of human IGROV-1 cells assessed as reduction in cell viability measured after 48 hrs by SRB assay; assay type: functional
[41] = tested on: SN12C; assay: Growth inhibition of human SN12C cells assessed as reduction in cell viability measured after 48 hrs by SRB assay; assay type: functional
[42] = tested on: SF-295; assay: Growth inhibition of human SF-295 cells assessed as reduction in cell viability measured after 48 hrs by SRB assay; assay type: functional
[43] = tested on: OVCAR-8; assay: Growth inhibition of human OVCAR-8 cells assessed as reduction in cell viability measured after 48 hrs by SRB assay; assay type: functional
[44] = tested on: HL-60(TB); assay: Growth inhibition of human HL-60(TB) cells assessed as reduction in cell viability measured after 48 hrs by SRB assay; assay type: functional
[45] = tested on: NCI-H23; assay: Growth inhibition of human NCI-H23 cells assessed as reduction in cell viability measured after 48 hrs by SRB assay; assay type: functional
[46] = tested on: OVCAR-4; assay: Growth inhibition of human OVCAR-4 cells assessed as reduction in cell viability measured after 48 hrs by SRB assay; assay type: functional

CC(C)(C)n1cc(-c2ccnc(NCCCNS(=O)(=O)c3ccc(Cl)cc3)c2)c(-c2cccc(O)c2)n1 was tested, and the GI50 [1] was 1840 nM, the GI50 [2] was 1510 nM and the GI50 [3] was 1650 nM. It also gave a GI50 [4] of 1620 nM, a GI50 [5] of 2180 nM and a GI50 [6] of 1920 nM. For the same molecule, the GI50 [7] was 2080 nM, the GI50 [8] was 1910 nM and the GI50 [9] was 1940 nM. For the same molecule, the GI50 [10] was 1360 nM, the GI50 [11] was 1740 nM and the GI50 [12] was 1670 nM. It also gave a GI50 [13] of 1670 nM, a GI50 [14] of 1570 nM and a GI50 [15] of 1800 nM. For the same molecule, the GI50 [16] was 1370 nM, the GI50 [17] was 1920 nM and the GI50 [18] was 1750 nM. For the same molecule, the GI50 [19] was 1440 nM, the GI50 [20] was 1720 nM and the GI50 [21] was 1970 nM. It also gave a GI50 [22] of 1820 nM, a GI50 [23] of 1770 nM and a GI50 [24] of 1890 nM. The GI50 [25] was 1660 nM, the GI50 [26] was 2060 nM and the inhibition [27] was 99.2%. For the same molecule, the GI50 [28] was 2130 nM, the GI50 [29] was 1890 nM and the GI50 [30] was 1520 nM. It also gave a GI50 [31] of 1920 nM, a GI50 [32] of 2380 nM and a GI50 [33] of 2110 nM. It also gave a GI50 [34] of 2030 nM, a GI50 [35] of 1650 nM and a GI50 [36] of 2460 nM. For the same molecule, the GI50 [37] was 1730 nM, the GI50 [38] was 2750 nM and the GI50 [39] was 1660 nM. For the same molecule, the GI50 [40] was 1880 nM, the GI50 [41] was 1650 nM and the GI50 [42] was 1790 nM. For the same molecule, the GI50 [43] was 2220 nM, the GI50 [44] was 2510 nM and the GI50 [45] was 1680 nM. It also gave a GI50 [46] of 1940 nM.

CC(C)(C)n1cc(-c2ccnc(NCCCNS(=O)(=O)c3cccc4ccccc34)c2)c(-c2cccc(O)c2)n1 was tested, and the GI50 [1] was 1910 nM, the GI50 [2] was 1370 nM and the GI50 [3] was 1670 nM. The GI50 [4] was 1730 nM, the GI50 [5] was 2630 nM and the GI50 [6] was 1850 nM. The GI50 [7] was 2340 nM, the GI50 [8] was 2000 nM and the GI50 [9] was 1930 nM. It also gave a GI50 [10] of 1850 nM, a GI50 [11] of 1830 nM and a GI50 [12] of 1840 nM. It also gave a GI50 [13] of 1400 nM, a GI50 [14] of 1670 nM and a GI50 [15] of 2040 nM. For the same molecule, the GI50 [16] was 1880 nM, the GI50 [17] was 1990 nM and the GI50 [18] was 1400 nM. For the same molecule, the GI50 [19] was 1270 nM, the GI50 [20] was 1680 nM and the GI50 [21] was 2700 nM. The GI50 [22] was 2220 nM, the GI50 [23] was 1810 nM and the GI50 [24] was 2060 nM. It also gave a GI50 [25] of 1510 nM, a GI50 [26] of 2490 nM and an inhibition [27] of 98.7%. The GI50 [28] was 2440 nM, the GI50 [29] was 2260 nM and the GI50 [30] was 1530 nM. It also gave a GI50 [31] of 1880 nM, a GI50 [32] of 2850 nM and a GI50 [33] of 1970 nM. It also gave a GI50 [34] of 2090 nM, a GI50 [35] of 1830 nM and a GI50 [36] of 2660 nM. The GI50 [37] was 1730 nM, the GI50 [38] was 2650 nM and the GI50 [39] was 1890 nM. For the same molecule, the GI50 [40] was 2140 nM, the GI50 [41] was 1730 nM and the GI50 [42] was 1800 nM. It also gave a GI50 [43] of 2380 nM, a GI50 [44] of 2680 nM and a GI50 [45] of 1780 nM. It also gave a GI50 [46] of 1920 nM.

For O=C1c2ccccc2-c2n[nH]c3cccc1c23, the GI50 [1] was 49000 nM, the GI50 [2] was 7030 nM and the GI50 [3] was 14600 nM. It also gave a GI50 [4] of 23100 nM, a GI50 [5] of 50000 nM and a GI50 [6] of 22600 nM. For the same molecule, the GI50 [7] was 2620 nM, the GI50 [8] was 20400 nM and the GI50 [9] was 9860 nM. The GI50 [10] was 23300 nM, the GI50 [11] was 69300 nM and the GI50 [12] was 30800 nM. The GI50 [13] was 44600 nM, the GI50 [14] was 37500 nM and the GI50 [16] was 16900 nM. The GI50 [17] was 12200 nM, the GI50 [18] was 13100 nM and the GI50 [19] was 25900 nM. The GI50 [20] was 100000 nM, the GI50 [21] was 6640 nM and the GI50 [22] was greater than 100000 nM. The GI50 [23] was 10900 nM, the GI50 [24] was 15300 nM and the GI50 [25] was 16400 nM. It also gave a GI50 [26] of 3560 nM, a GI50 [28] of 16000 nM and a GI50 [29] of 10500 nM. For the same molecule, the GI50 [30] was 8040 nM, the GI50 [31] was 29000 nM and the GI50 [32] was 5930 nM. The GI50 [33] was 22900 nM, the GI50 [34] was 27100 nM and the GI50 [35] was 32200 nM. It also gave a GI50 [36] of 25000 nM, a GI50 [38] of 28200 nM and a GI50 [39] of 19500 nM. It also gave a GI50 [40] of 11400 nM, a GI50 [41] of 14800 nM and a GI50 [42] of 22500 nM. The GI50 [43] was 22000 nM, the GI50 [44] was 42100 nM and the GI50 [45] was 23800 nM. The GI50 [46] was 31900 nM.
